For one series, the target named is T1, IRAK4 (Homo sapiens, UniProt Q9NWZ3).
T1 construct: with 0.1 nM IRAK4, 1.6 μM of biotinylated peptide substrate and 10 μM ATP
T1 sequence (Q9NWZ3 1-460): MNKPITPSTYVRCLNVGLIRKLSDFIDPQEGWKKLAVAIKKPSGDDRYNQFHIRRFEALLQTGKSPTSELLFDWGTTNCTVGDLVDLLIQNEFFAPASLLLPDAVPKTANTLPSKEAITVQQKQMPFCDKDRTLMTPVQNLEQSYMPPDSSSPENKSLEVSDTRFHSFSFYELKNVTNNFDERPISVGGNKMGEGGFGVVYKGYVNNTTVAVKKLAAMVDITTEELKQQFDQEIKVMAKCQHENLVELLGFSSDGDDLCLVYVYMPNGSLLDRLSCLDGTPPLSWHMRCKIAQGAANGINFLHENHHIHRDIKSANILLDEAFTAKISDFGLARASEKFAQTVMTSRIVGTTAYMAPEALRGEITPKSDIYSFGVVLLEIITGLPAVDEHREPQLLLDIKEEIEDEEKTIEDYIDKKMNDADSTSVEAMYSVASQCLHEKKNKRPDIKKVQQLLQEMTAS
Nature of the series: IRAK4 MSD Biochemical Assay (1 mM ATP, 2 h). Particulars: room temperature. The procedure: The 2-hour 10 μM ATP Biochemical Assay employs a MesoScale Detection (MSD) format.
The activity is quenched with 11 μl of 70 mM EDTA, pH 8.
To detect the phosphorylated biotinylated peptide substrate, 30 μl of the quenched reaction mixture is added to equivalent wells of a 384 well streptavidin coated MesoScale plate (Meso Scale Discovery #L21SA-1). After a 1 hour incubation of the plate for 1 hour at room temperature with gentle mixing, the plate wells are washed 3 times with 50 mM Tris, pH 7.5, 150 mM NaCl, 0.02% Tween-20.
A 25 μl volume of 1:500 anti-P-Threonine Rabbit polyclonal Antibody plus 1:500 Goat-anti-Rabbit Sulfo Tag Antibody (Meso Scale Discovery R32AB-1) in 50 mM Tris, pH 7.5, 150 mM NaCl, 0.02% Tween-20 plus 2% BSA is then added to each well. After a 1-hour incubation of the plate for 1 hour at room temperature with gentle mixing, the plate wells are washed, 3 times with 50 mM Tris, pH 7.5, 150 mM NaCl, 0.02% Tween-20. A 40 μl volume of 2×MSD Read Buffer (Meso Scale Discovery R92TC-1) is added to each well, and the plate is read immediately in an MSD Plate Reader (Meso Scale Discovery).
The 2-hour 1 mM ATP IRAK4 Biochemical assay was performed as described above, but with […] IRAK4 and 1 mM ATP.

The next series deals with T2, MDR1 (P-gp) (Homo sapiens, UniProt P08183).
T2 construct: host or cells: MDCK cells
T2 sequence (P08183 whole entry): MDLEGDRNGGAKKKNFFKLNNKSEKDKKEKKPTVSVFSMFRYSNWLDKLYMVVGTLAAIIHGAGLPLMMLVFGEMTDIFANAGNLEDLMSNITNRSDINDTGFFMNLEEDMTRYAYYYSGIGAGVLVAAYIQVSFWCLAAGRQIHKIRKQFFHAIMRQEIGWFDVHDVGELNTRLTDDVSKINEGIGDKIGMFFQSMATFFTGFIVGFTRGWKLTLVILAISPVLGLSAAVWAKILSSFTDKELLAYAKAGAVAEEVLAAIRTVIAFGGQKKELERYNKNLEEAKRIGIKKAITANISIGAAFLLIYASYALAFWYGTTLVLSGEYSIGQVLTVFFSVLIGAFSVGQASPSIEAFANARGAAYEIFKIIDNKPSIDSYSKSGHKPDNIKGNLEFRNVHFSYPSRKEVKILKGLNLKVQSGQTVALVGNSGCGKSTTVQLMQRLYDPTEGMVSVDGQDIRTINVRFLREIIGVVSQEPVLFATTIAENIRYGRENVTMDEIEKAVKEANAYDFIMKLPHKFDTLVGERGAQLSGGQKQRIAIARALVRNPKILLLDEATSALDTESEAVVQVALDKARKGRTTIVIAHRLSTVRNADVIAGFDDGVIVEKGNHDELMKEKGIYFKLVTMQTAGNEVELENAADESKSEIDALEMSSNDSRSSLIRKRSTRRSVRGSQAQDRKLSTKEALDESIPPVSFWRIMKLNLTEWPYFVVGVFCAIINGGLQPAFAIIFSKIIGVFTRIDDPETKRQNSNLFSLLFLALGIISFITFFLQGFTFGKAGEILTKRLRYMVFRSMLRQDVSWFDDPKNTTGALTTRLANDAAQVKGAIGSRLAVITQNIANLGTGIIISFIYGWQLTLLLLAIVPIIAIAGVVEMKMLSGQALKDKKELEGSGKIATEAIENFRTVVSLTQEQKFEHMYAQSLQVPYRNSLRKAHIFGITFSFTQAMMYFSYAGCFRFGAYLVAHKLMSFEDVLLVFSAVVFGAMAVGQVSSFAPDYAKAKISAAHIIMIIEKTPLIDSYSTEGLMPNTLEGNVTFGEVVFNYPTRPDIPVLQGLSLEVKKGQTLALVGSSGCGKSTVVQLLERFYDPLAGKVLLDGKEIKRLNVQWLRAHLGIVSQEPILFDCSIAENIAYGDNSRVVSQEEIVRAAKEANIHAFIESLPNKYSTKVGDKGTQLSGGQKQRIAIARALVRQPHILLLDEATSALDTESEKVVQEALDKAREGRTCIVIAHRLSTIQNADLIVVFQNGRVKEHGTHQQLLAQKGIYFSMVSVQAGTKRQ
Nature of the series: MDR1-MDCK assay (efflux ratio). Type of series: in vitro ADME. Particulars: human, MDCK-MDR1, 1 μM compound, 120 minutes incubation; read-out: MDR1-MDCK Efflux Ratio; (B-A/A-B). The procedure:
• The assay makes use of human MDR1 transfected MDCK cells (NIH cell line in-licensed from Absorption Systems) • The compounds are tested at 1 μM concentration prepared in transport buffer (Hank's balanced salt solution with HEPES) • MDR1-MDCK cell are cultured for 7 days in 96 well transwell insert plates (Corning). Insert plates are washed before the assay and TEER (Trans epithelial electric resistance) is measured. • These plates are loaded with test compound solution 85 μL for A-B transport and 260 μL for B-A transport in the respective donor compartment.
Mass balance=100×((Vr×Cr^final)+(Vd×Cd^final))/(Vd×CE) • Where: • dCr/dt is the cumulative concentration in the receiver compartment versus time in μM s^−1 • Vr is the volume of the receiver compartment in cm^3 • Vd is the volume of the donor compartment in cm^3 • A is the area of the insert (0.143 cm^2 for 96-well insert) • CE is the estimated experimental concentration (Time=0) of the dosing solution • Cr^final is the concentration of the receiver at the end of the incubation period • Cd^final is the concentration of the donor at the end of the incubation period.

Where [1] appears, read: read-out: IRAK4 MSD Biochemical Assay (1 mM ATP, 2 h) IC50.

Counter-ions that a name gives are not always drawn. Like-named read-outs stand apart in the source and are kept apart here.

Consider `Cn1cccc(NC(=O)c2cc3cn(C[C@@H]4CCOC4)nc3nc2OC2CCCC2)c1=O` (single isomer, unassigned) [Example 115], for which, at IRAK4 (setting [1]), the IC50 came to 1 nM. Further, the efflux ratio at 120 min, 1 μM on MDR1 (P-gp) is 2.3.
Taken in the same sequence, the figures for `COCCCn1cc2cc(C(=O)Nc3cccc(C(F)F)n3)c(OC(C)C)nc2n1.Cl` [Example 62, N-(6-(difluoromethyl)pyridin-2-yl)-6-isopropoxy-2-(3-methoxsypropyl)-2H-pyrazolo[3,4-b]pyridine-5-carboxamide hydrochloride] were 0.6 nM and 1.7.
Taken in the same sequence, the figures for `CC(C)Oc1cc2nn(CC34COC(C)(C3)C4)cc2cc1C(=O)Nc1cccc(C(F)F)n1.Cl` [Example 27, N-(6-(difluoromethyl)pyridin-2-yl)-6-isopropoxy-2-((1-methyl-2-oxabicyclo[2.1.1]hexan-4-yl)methyl)-2H-indazole-5-carboxamide hydrochloride] were 5.4 nM and 1.3.
Taken in the same sequence, the figures for `O=C(Nc1ccn(C(F)F)n1)c1cc2cn(C[C@@H]3CCOC3)nc2nc1OC1CCCC1` (single isomer, unassigned) [Example 117] were 2 nM and 2.6.
With `CC(C)Oc1cc2nn([C@@H]3CCOC(C)(C)C3)cc2cc1C(=O)Nc1cccc(C(F)F)n1` (single isomer, unassigned) [Example 46], the IC50 at IRAK4 (setting [1]) stood at 0.3 nM. For the same compound, on MDR1 (P-gp), the efflux ratio at 120 min, 1 μM is 1.2.
Taken in the same sequence, the figures for `CC(C)Oc1cc2nn([C@H]3CCOC(C)(C)C3)cc2cc1C(=O)Nc1cccc(C(F)F)n1` (single isomer, unassigned) [Example 47] were 0.2 nM and 1.5.
Taken in the same sequence, the figures for `CC12CC(n3cc4cc(C(=O)Nc5cccn(C(F)F)c5=O)c(OC5CCC5)cc4n3)(CO1)C2` [Example 84, 6-Cyclobutoxy-N-(1-(difluoromethyl)-2-oxo-1,2-dihydropyridin-3-yl)-2-(1-methyl-2-oxabicyclo[2.1.1]hexan-4-yl)-2H-indazole-5-carboxamide trifluoroacetate] were 0.5 nM and 0.9.
Taken in the same sequence, the figures for `Cn1cccc(NC(=O)c2cc3cn(C[C@@H]4CCOC4)nc3nc2OC2CCC2)c1=O` (single isomer, unassigned) [Example 113] were 2.1 nM and 5.3.
As to `COc1ncccc1NC(=O)c1cc2cn(CCC(C)(C)O)nc2nc1OC(C)C` [Example 40, 2-(3-Hydroxy-3-methylbutyl)-6-isopropoxy-N-(2-methoxypyridin-3-yl)-2H-pyrazolo[3,4-b]pyridine-5-carboxamide], the IC50 on IRAK4 (setting [1]) was 0.7 nM. For the same compound, the efflux ratio at 120 min, 1 μM on MDR1 (P-gp) came out at 5.7.
Taken in the same sequence, the figures for `CC(C)Oc1cc2nn(C3CCOCC3)cc2cc1C(=O)Nc1cccn2nccc12.Cl` [Example 71, 6-Isopropoxy-N-(pyrazolo[1,5-a]pyridin-4-yl)-2-(tetrahydro-2H-pyran-4-yl)-2H-indazole-5-carboxamide hydrochloride] were 6.6 nM and 1.6.
Taken in the same sequence, the figures for `COCCCn1cc2cc(C(=O)Nc3cccc(OC)n3)c(OC(C)C)nc2n1.Cl` [Example 61, 6-Isopropoxy-2-(3-methoxypropyl)-N-(6-methoxypyridin-2-yl)-2H-pyrazolo[3,4-b]pyridine-5-carboxamide hydrochloride] were 3.7 nM and 1.1.
On to `CC(C)Oc1nc2nn(C[C@@H]3CCOC3)cc2cc1C(=O)Nc1cnn2cccnc12` (single isomer, unassigned) [Example 119], for which the IC50 on IRAK4 (IRAK4 MSD Biochemical Assay (1 mM ATP, 2 h) IC50 (nM)) is 1 nM. For the same compound, at MDR1 (P-gp), the efflux ratio at 120 min, 1 μM was determined as 3.
Consider `CC(C)Oc1cc2nn(C34CCC(C)(CC3)OC4)cc2cc1C(=O)Nc1ccn(C)n1` [Example 103, 6-Isopropoxy-N-(1-methyl-1H-pyrazol-3-yl)-2-(1-methyl-2-oxabicyclo[2.2.2]octan-4-yl)-2H-indazole-5-carboxamide], for which the IC50 at IRAK4 (setting [1]) was 1.9 nM. In addition, at MDR1 (P-gp), the efflux ratio at 120 min, 1 μM turned out to be 0.9.
For the compound `CC(C)Oc1cc2nn(C3COC3)cc2cc1C(=O)Nc1cnn2cccnc12` [Example 38, 6-Isopropoxy-2-(oxetan-3-yl)-N-(pyrazolo[1,5-a]pyrimidin-3-yl)-2H-indazole-5-carboxamide], at IRAK4 (setting [1]), the IC50 worked out at 11.2 nM. Also, at MDR1 (P-gp), the efflux ratio at 120 min, 1 μM is 2.3.
With `O=C(Nc1cccc(C(F)F)n1)c1cc2cn(C3CCOCC3)nc2cc1OC1CCOC1` (stereo not drawn) [Example 75, N-(6-(difluoromethyl)pyridin-2-yl)-2-(tetrahydro-2H-pyran-4-yl)-6-((tetrahydrofuran-3-yl)oxy)-2H-indazole-5-carboxamide], the IC50 on IRAK4 (setting [1]) stood at 1.1 nM. The efflux ratio at 120 min, 1 μM on MDR1 (P-gp) came to 2.9.
Taken in the same sequence, the figures for `CC(C)Oc1cc2nn(CCC(C)(C)O)cc2cc1C(=O)Nc1cnn2cccnc12` [Example 34, 2-(3-Hydroxy-3-methylbutyl)-6-isopropoxy-N-(pyrazolo[1,5-a]pyrimidin-3-yl)-2H-indazole-5-carboxamide] were 1 nM and 14.2.
Take `CC(C)Oc1nc2nn(CCC(C)(C)O)cc2cc1C(=O)Nc1cccc(C(F)F)n1` [Example 32, N-(6-(difluoromethyl)pyridin-2-yl)-2-(3-hydroxy-3-methylbutyl)-6-isopropoxy-2H-pyrazolo[3,4-b]pyridine-5-carboxamide]: on IRAK4 (setting [1]), the IC50 worked out at 0.4 nM. Moreover, the efflux ratio at 120 min, 1 μM on MDR1 (P-gp) was found to be 3.4.
For the compound `CC(C)Oc1cc2nn([C@@]34CC[C@@](C)(C3)OC4)cc2cc1C(=O)Nc1cnn2cccnc12` (single isomer, unassigned) [Example 128], the IC50 at IRAK4 (setting [1]) worked out at 0.5 nM. Also, the efflux ratio at 120 min, 1 μM at MDR1 (P-gp) was determined as 1.4.
Taken in the same sequence, the figures for `CC(C)Oc1cc2nn(C34CCC(C)(C3)OC4)cc2cc1C(=O)Nc1cccn(C)c1=O` (stereo not drawn) [Example 57, 6-Isopropoxy-N-(1-methyl-2-oxo-1,2-dihydropyridin-3-yl)-2-(1-methyl-2-oxabicyclo[2.2.1]heptan-4-yl)-2H-indazole-5-carboxamide] were 0.8 nM and 1.1.
Turning to `CC(C)Oc1nc2nn(CC3CCOC3)cc2cc1C(=O)Nc1ccn(C(F)F)n1` (stereo not drawn) [Example 80, N-(1-(difluoromethyl)-1H-pyrazol-3-yl)-6-isopropoxy-2-((tetrahydrofuran-3-yl)methyl)-2H-pyrazolo[3,4-b]pyridine-5-carboxamide], the IC50 at IRAK4 (setting [1]) stood at 6.4 nM. For the same compound, the efflux ratio at 120 min, 1 μM at MDR1 (P-gp) came out at 3.1.
In the case of `O=C(Nc1ccn(C(F)F)n1)c1cc2cn(C[C@H]3CCOC3)nc2nc1OC1CCCC1` (single isomer, unassigned) [Example 116], on IRAK4 (setting [1]), the IC50 stood at 3.8 nM. Moreover, on MDR1 (P-gp), the efflux ratio at 120 min, 1 μM worked out at 2.5.
On to `COc1cccc(NC(=O)c2cc3cn(C[C@H]4CCOC4)nc3cc2OC)n1` (single isomer, unassigned) [Example 23], for which the IC50 at IRAK4 (setting [1]) was determined as 51.3 nM. Besides, the efflux ratio at 120 min, 1 μM at MDR1 (P-gp) was 0.8.
Taken in the same sequence, the figures for `COc1cc2nn(C3CCOCC3)cc2cc1C(=O)Nc1cccc(C(F)F)n1.Cl` [Example 24, N-(6-(difluoromethyl)pyridin-2-yl)-6-methoxy-2-(tetrahydro-2H-pyran-4-yl)-2H-indazole-5-carboxamide Hydrochloride] were 6.3 nM and 0.7.
Taken in the same sequence, the figures for `CC(C)Oc1nc2nn(C[C@H]3CCOC3)cc2cc1C(=O)Nc1cccc(C(F)F)n1` (single isomer, unassigned) [Example 106] were 0.4 nM and 0.8.
